Measured values taken from ChEMBL document CHEMBL5104146, “Anti-inflammatory and anticancer p-terphenyl derivatives from fungi of the genus Thelephora” (Bioorg Med Chem, 2022).

What was measured:
KB 3-1 = experiment: Cytotoxicity against human KB 3-1 cells assessed as cell growth inhibition; assay type: functional, cell-based
[1] = Inhibition of Streptococcus pneumoniae FabK using t-o-NAC as substrate in presence of NADPH by […]
L929 = experiment: Cytotoxicity against mouse L929 cells assessed as cell growth inhibition; assay type: functional, cell-based
[2] = Inhibition of 17beta-HSD1 (unknown origin); parameters: species or system Homo sapiens
[3] = Inhibition of Staphylococcus aureus FabK using t-o-NAC as substrate in presence of NADPH by […]
[4] = Inhibition of Escherichia coli FabK using t-o-NAC as substrate in presence of NADPH by […]
[5] = Inhibition of Saccharomyces cerevisiae alpha-glucosidase using pNPG as substrate preincubated for 10 mins followed by substrate addition measured after 15 mins by absorbance based microplate reader analysis
[6] = Inhibition of TNF-alpha production in rat RBL-2H3 cells; assay type: functional, cell-based
HepG2 = experiment: Antiproliferative activity against human HepG2 cells assessed as cell growth inhibition measured after 48 hrs; assay type: functional, cell-based; conditions: HepG2, 48 h
[7] = Antioxidant activity assessed as DPPH radical scavenging activity by absorbance based analysis; assay type: functional
[8] = Antioxidant activity assessed as DPPH radical scavenging activity measured after 30 mins under dark condition by microplate reader analysis; assay type: functional

O=C1C(O)=C(c2ccc(O)c(O)c2)C(=O)C(O)=C1c1ccc(O)cc1
IC50 (KB 3-1): 7 µM
IC50 [1]: 1.57 µM
IC50 (L929): 17 µM

O=C1C(O)=C(c2ccc(O)cc2)C(=O)C(O)=C1c1ccc(O)cc1
EC50 [2]: > 100 µM
IC50 [1]: 0.24 µM
IC50 [3]: > 200 µM
IC50 [4]: > 200 µM

O=C(Oc1c(O)c(-c2ccc(O)cc2)c(OC(=O)c2ccccc2)c(O)c1-c1ccc(O)cc1)c1ccccc1
IC50 [5]: > 50 µM

O=C(Oc1c(O)c(-c2ccc(O)cc2)c(OC(=O)c2ccc(O)cc2)c(O)c1-c1ccc(O)cc1)c1ccc(O)cc1
IC50 [6]: 3.5 nM

CC(=O)Oc1c(OC(=O)c2ccccc2)c(-c2ccc(O)cc2)c(O)c(O)c1-c1ccc(O)cc1
IC50 [5]: 0.99 µM

O=C(Oc1c(OC(=O)c2ccccc2)c(-c2ccc(O)cc2)c(OC(=O)c2ccccc2)c(O)c1-c1ccc(O)cc1)c1ccccc1
IC50 [5]: 4.53 µM

CC(=O)Oc1c(OC(=O)c2ccccc2)c(-c2ccc(O)cc2)c(OC(=O)c2ccccc2)c(OC(=O)c2ccccc2)c1-c1ccc(O)cc1
IC50 [5]: 2.98 µM

O=C(Cc1ccccc1)Oc1c(OC(=O)c2ccccc2)c(-c2ccc(O)cc2)c(O)c(O)c1-c1ccc(O)cc1
IC50 (HepG2): 7 µM

O=C(Cc1ccccc1)Oc1c(O)c(-c2ccc(O)cc2)c(OC(=O)c2ccc(O)cc2)c(O)c1-c1ccc(O)cc1
EC50 [7]: 0.028 µM

COC1=C(c2ccc(O)cc2)C(=O)C(OC(=O)c2ccccc2)=C(c2ccc(O)cc2)C1=O
EC50 [8]: 150 µM
IC50 [5]: 18.8 µM

O=C1O[C@H]([C@@H](O)CO)C(O)=C1O [ASCORBIC ACID]
EC50 [7]: 0.27 µM

O=C(Cc1ccccc1)Oc1c(OC(=O)Cc2ccccc2)c(-c2ccc(O)cc2)c(O)c(O)c1-c1ccc(O)cc1 [VIALININ A]
IC50 (HepG2): 7 µM
IC50 [6]: 0.02 nM
